Tests used:
[1] = biological target: T1, TNKS2 (Homo sapiens, UniProt Q9H2K2); assay: Modified TNKS2 Assay 2 (auto-parsylation, [3H]-NAD+ SPA); assay type: biochemical; conditions: 6 nM TNKS2, 96 well
T1 sequence (Q9H2K2 1-1166): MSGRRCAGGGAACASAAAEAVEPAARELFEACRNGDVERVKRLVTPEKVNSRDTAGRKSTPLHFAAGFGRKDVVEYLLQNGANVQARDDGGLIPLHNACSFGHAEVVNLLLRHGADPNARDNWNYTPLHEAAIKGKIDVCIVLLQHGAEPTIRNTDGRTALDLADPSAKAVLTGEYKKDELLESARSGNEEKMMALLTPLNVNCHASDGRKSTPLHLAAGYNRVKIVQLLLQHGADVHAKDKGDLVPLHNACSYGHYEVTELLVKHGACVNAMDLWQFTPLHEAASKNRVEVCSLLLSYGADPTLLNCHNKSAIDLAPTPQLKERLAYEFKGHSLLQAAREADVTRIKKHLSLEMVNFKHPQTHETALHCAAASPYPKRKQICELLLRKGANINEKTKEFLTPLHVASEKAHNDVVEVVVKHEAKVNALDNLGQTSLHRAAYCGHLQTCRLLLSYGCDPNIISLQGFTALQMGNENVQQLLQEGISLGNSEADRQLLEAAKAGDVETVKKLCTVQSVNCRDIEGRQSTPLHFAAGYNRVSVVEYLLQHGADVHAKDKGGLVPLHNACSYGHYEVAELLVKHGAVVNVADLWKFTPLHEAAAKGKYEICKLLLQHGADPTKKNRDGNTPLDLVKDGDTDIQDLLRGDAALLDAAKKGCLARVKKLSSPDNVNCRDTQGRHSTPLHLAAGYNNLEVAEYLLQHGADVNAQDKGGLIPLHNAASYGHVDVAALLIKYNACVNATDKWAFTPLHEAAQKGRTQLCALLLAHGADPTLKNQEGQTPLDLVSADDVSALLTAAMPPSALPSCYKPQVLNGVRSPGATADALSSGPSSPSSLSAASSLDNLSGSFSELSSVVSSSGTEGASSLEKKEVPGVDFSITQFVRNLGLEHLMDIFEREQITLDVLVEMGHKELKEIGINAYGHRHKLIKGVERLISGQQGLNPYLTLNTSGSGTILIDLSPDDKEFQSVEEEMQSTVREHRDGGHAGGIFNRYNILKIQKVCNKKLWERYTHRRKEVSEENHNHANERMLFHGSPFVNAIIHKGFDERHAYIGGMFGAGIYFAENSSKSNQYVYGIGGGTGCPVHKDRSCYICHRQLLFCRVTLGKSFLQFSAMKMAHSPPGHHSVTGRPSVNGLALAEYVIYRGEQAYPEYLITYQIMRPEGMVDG

[2] = system: wildtype Wnt signaling cascade; assay: HEK293 TOP Assay (Super TopFlash luciferase reporter, Wnt-3a stimulated); assay type: cell-based; conditions: Homo sapiens, HEK293, 16 h
Procedure, shortened: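 Compounds (50 μM down to 15 nM, 3.16-fold steps, in CAFTY buffer pH 7.4, 2 mM Ca2+, 0.01% BSA) tested in parallel on TOP and FOP HEK293 reporter lines to define selective wildtype Wnt inhibition. Pathway driven by recombinant human Wnt-3a applied at 2500–5 ng/ml in two-fold dilutions.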

[3] = HEK293 TOP reporter cell line, Wnt-3a at EC50, 16 hours incubation, compound dilution series 50 μM to 15 nM
[4] = HEK293 TOP reporter cells, Wnt3a at EC50, 16 hours, luciferase

SMILES	IC50 [1] [nM]	IC50 [2, 3] [nM]	IC50 [2, 4] [nM]
CN(C)C(=O)c1nc[nH]c1C(=O)Nc1ccc(NC(=O)c2ccc(F)cc2Cl)cc1 [Example 24, N^5-{4-[(2-chloro-4-fluorobenzoyl)amino]phenyl}-N^4,N^4-dimethyl-1H-imidazole-4,5-dicarboxamide]	3400	2130	2050
CNC(=O)c1nc[nH]c1C(=O)Nc1ccc(NC(=O)c2ccccc2OC(F)(F)F)cc1 [Example 243, N^4-methyl-N^5-(4-{[2-(trifluoromethoxy)benzoyl]amino}phenyl)-1H-imidazole-4,5-dicarboxamide]	> 10000	11500	
CNC(=O)c1nc[nH]c1C(=O)Nc1ccc(NC(=O)c2cccc(OC)c2Cl)cc1 [Example 252, N^5-{4-[(2-chloro-3-methoxybenzoyl)amino]phenyl}-N^4-methyl-1H-imidazole-4,5-dicarboxamide]	3800	4050	
CC(C)(CNC(=O)c1[nH]cnc1C(=O)Nc1ccc(NC(=O)c2ccccc2Cl)cc1)N1CCCCC1 [Example 165, N^4-{4-[(2-chlorobenzoyl)amino]phenyl}-N^5-[2-methyl-2-(piperidin-1-yl)propyl]-1H-imidazole-4,5-dicarboxamide]	70	290	
O=C(Nc1ccc(NC(=O)c2nc[nH]c2C(=O)NCCCCN2CCCCC2)cc1)c1ccccc1Cl [Example 189, N^4-{4-[(2-chlorobenzoyl)amino]phenyl}-N^5-[4-(piperidin-1-yl)butyl]-1H-imidazole-4,5-dicarboxamide]	260	890	
O=C(Nc1ccc(NC(=O)c2nc[nH]c2C(=O)NCCN2CCCC2)cc1)c1ccc(F)cc1 [Example 176, N^4-{4-[(4-fluorobenzoyl)amino]phenyl}-N^5-[2-(pyrrolidin-1-yl)ethyl]-1H-imidazole-4,5-dicarboxamide]	60	340	
CN1CCN(CCNC(=O)c2[nH]cnc2C(=O)Nc2ccc(NC(=O)c3ccccc3Cl)cc2)CC1 [Example 160, N^4-{4-[(2-chlorobenzoyl)amino]phenyl}-N^5-[2-(4-methylpiperazin-1-yl)ethyl]-1H-imidazole-4,5-dicarboxamide]	110	580	
CNC(=O)c1nc[nH]c1C(=O)Nc1ccc(NC(=O)c2cc(OCCN3CCN(C)CC3)ccc2Cl)cc1 [Example 124, N^5-[4-({2-chloro-5-[2-(4-methylpiperazin-1-yl)ethoxy]benzoyl}amino)phenyl]-N^4-methyl-1H-imidazole-4,5-dicarboxamide]	> 10000	50000	
CNC(=O)c1nc[nH]c1C(=O)Nc1ccc(NC(=O)c2ccc(N(C)C)cc2Cl)cc1 [Example 4, N^5-(4-{[2-chloro-4-(dimethylamino)benzoyl]amino}phenyl)-N^4-methyl-1H-imidazole-4,5-dicarboxamide]	> 10000	910	910
O=C(Nc1ccc(NC(=O)c2nc[nH]c2C(=O)NCCCN2CCOCC2)cc1)c1ccc(F)cc1 [Example 206, N^4-{4-[(4-fluorobenzoyl)amino]phenyl}-N^5-[3-(morpholin-4-yl)propyl]-1H-imidazole-4,5-dicarboxamide]	5300	2100	
CC(C)CNC(=O)c1[nH]cnc1C(=O)Nc1ccc(NC(=O)c2ccc(F)cc2Cl)cc1 [Example 147, N^4-{4-[(2-chloro-4-fluorobenzoyl)amino]phenyl}-N^5-isobutyl-1H-imidazole-4,5-dicarboxamide]	110	320	
CC1CCCN(CCNC(=O)c2[nH]cnc2C(=O)Nc2ccc(NC(=O)c3ccc(F)cc3Cl)cc2)C1 (stereo not shown) [Example 208, N^4-{4-[(2-chloro-4-fluorobenzoyl)amino]phenyl}-N^5-[2-(3-methylpiperidin-1-yl)ethyl]-1H-imidazole-4,5-dicarboxamide]	2	30	
CNC(=O)c1nc[nH]c1C(=O)Nc1ccc(NC(=O)c2ccccc2O)cc1 [Example 239, N^5-{4-[(2-hydroxybenzoyl)amino]phenyl}-N^4-methyl-1H-imidazole-4,5-dicarboxamide]	> 10000	46500	
CNC(=O)c1nc[nH]c1C(=O)Nc1ccc(NC(=O)c2cnccc2Cl)cc1 [Example 254, N^5-(4-{[(4-chloropyridin-3-yl)carbonyl]amino}phenyl)-N^4-methyl-1H-imidazole-4,5-dicarboxamide]	430	750	
CC(C)(CN1CCCCC1)NC(=O)c1[nH]cnc1C(=O)Nc1ccc(NC(=O)c2ccc(F)cc2Cl)cc1 [Example 184, N^4-{4-[(2-chloro-4-fluorobenzoyl)amino]phenyl}-N^5-[2-methyl-1-(piperidin-1-yl)propan-2-yl]-1H-imidazole-4,5-dicarboxamide]	50	820	
CCS(=N)(=O)c1ccc(C(=O)Nc2ccc(NC(=O)c3[nH]cnc3C(=O)NC)cc2)c(Cl)c1 (stereo not shown) [Example 255, N^5-(4-{[2-chloro-4-(S-ethylsulfonimidoyl)benzoyl]amino}phenyl)-N^4-methyl-1H-imidazole-4,5-dicarboxamide]	640	1240	
O=C(Nc1ccc(NC(=O)c2nc[nH]c2C(=O)NC(CO)CO)cc1)c1ccccc1Cl [Example 157, N^4-{4-[(2-chlorobenzoyl)amino]phenyl}-N^5-(1,3-dihydroxypropan-2-yl)-1H-imidazole-4,5-dicarboxamide]	1400	8400	
CNC(=O)c1nc[nH]c1C(=O)Nc1ccc(NC(=O)c2cc(F)c(F)cc2Cl)cc1 [Example 242, N^5-{4-[(2-chloro-4,5-difluorobenzoyl)amino]phenyl}-N^4-methyl-1H-imidazole-4,5-dicarboxamide]	30	80	
CNC(=O)c1ncoc1C(=O)Nc1ccc(NC(=O)c2ccc(F)cc2Cl)cc1 [Example 11, N^5-{4-[(2-chloro-4-fluorobenzoyl)amino]phenyl}-N^4-methyl-1,3-oxazole-4,5-dicarboxamide]	910	730	730
O=C(Nc1ccc(NC(=O)c2nc[nH]c2C(=O)NCCF)cc1)c1ccccc1Cl [Example 166, N^4-{4-[(2-chlorobenzoyl)amino]phenyl}-N^5-(2-fluoroethyl)-1H-imidazole-4,5-dicarboxamide]	330	530	
CNC(=O)c1nc[nH]c1C(=O)Nc1ccc(NC(=O)c2cc(OCCN3CCCCC3)ccc2Cl)cc1 [Example 125, N^5-[4-({2-chloro-5-[2-(piperidin-1-yl)ethoxy]benzoyl}amino)phenyl]-N^4-methyl-1H-imidazole-4,5-dicarboxamide]	> 10000	4100	
CNC(=O)c1nc[nH]c1C(=O)Nc1ccc(NC(=O)c2ccc(OCCN(C)C)cc2Cl)cc1 [Example 25, N^5-[4-({2-chloro-4-[2-(dimethylamino)ethoxy]benzoyl}amino)phenyl]-N^4-methyl-1H-imidazole-4,5-dicarboxamide]	220	720	720
CC1CCCCN1CCNC(=O)c1[nH]cnc1C(=O)Nc1ccc(NC(=O)c2ccc(F)cc2)cc1 (stereo not shown) [Example 169, N^4-{4-[(4-fluorobenzoyl)amino]phenyl}-N^5-[2-(2-methylpiperidin-1-yl)ethyl]-1H-imidazole-4,5-dicarboxamide]	180	800	
CC(C)(CN1CCOCC1)NC(=O)c1[nH]cnc1C(=O)Nc1ccc(NC(=O)c2ccc(F)cc2)cc1 [Example 180, N^4-{4-[(4-fluorobenzoyl)amino]phenyl}-N^5-[2-methyl-1-(morpholin-4-yl)propan-2-yl]-1H-imidazole-4,5-dicarboxamide]	6900	5350	
CNC(=O)c1nc[nH]c1C(=O)Nc1ccc(NC(=O)c2ccc(F)cc2Cl)c(C)c1 [Example 5, N^5-{4-[(2-chloro-4-fluorobenzoyl)amino]-3-methylphenyl}-N^4-methyl-1H-imidazole-4,5-dicarboxamide]	770	240	240
